Measured values taken from publication PMC4648443, “Protein evolution analysis of S-hydroxynitrile lyase by complete sequence design utilizing the INTMSAlign software” (Scientific Reports, 2015).
Like-named read-outs stand apart in the source and are kept apart here.

Tests used:
[1] = system: T1, HNL54; assay: benzaldehyde formation at […] nm; format: biochemical, synthetic construct; settings: 100 mM citrate pH 5.5, 30 °C
T1 construct: synthetic gene in pET28b (NdeI/XhoI), E. coli BL21(DE3), Ni-Sepharose and gel filtration

[2] = system: T2, HNL30; assay: benzaldehyde formation at […] nm; format: biochemical, synthetic construct; settings: 100 mM citrate pH 5.5, 30 °C
T2 construct: pET28b (NdeI/XhoI), E. coli BL21(DE3), Ni-Sepharose and gel filtration

Question: With `N#CC(O)c1ccccc1` (racemic) [rac-Man] as the molecule, how does the Km ([1]; read-out: Km /) read?
Answer: 3200 ± 300 µM

Question: What about the Km ([2]; read-out: Km /) of the same molecule?
Answer: 800 ± 100 µM

Question: Which results are given for `N#C[C@@H](O)c1ccccc1` [(S)-Man]?
Answer: Km ([1]; read-out: HNL54 / Km): 610 µM; Km ([2]; read-out: HNL30 / Km): 400 µM

Question: Which results are given for `N#C[C@H](O)c1ccccc1` [(R)-Man]?
Answer: Km ([1]; read-out: HNL54 / Km): 370 µM; Km ([2]; read-out: HNL30 / Km): 5000 µM
